One series has as its target chymotrypsin (Bos taurus, UniProt P00766). In words: competitive inhibition of chymotrypsin, standard assay using a BTEE substrate. In kind it is biochemical. The procedure:
The set of molecules where X=CH2 was tested as competitive inhibitiors of the enzyme chymotrypsin in a standard assay using a BTEE substrate.

For series [1] the following is noted: boiling in 6 N NaOH for 24 hrs; cited from earlier work.

pKi: −log10 of the molar value. Where two headings read alike, the source gives them in different places.

`CC(=O)[N-][N+]1(CC(O)c2ccccc2)CCCCC1` (centres unmarked) [R1=Ph, R2=Me]: the negative logarithm of the Ki (pKi) (in general, the negative decadic logarithm of the Ki, by convention in mol/L) on chymotrypsin was 3.70.
As for `CC(=O)[N-][N+]1(CC(C)O)CCCCC1` (centres unmarked) [R1=Me, R2=Me], the Ki result on chymotrypsin (competitive inhibition, BTEE substrate, set of molecules where X=CH2) is listed as “not be an inhibitor”.
As for `CN(C)C.NC(=O)c1ccccc1` [trimethyl amine benzamide], the hydrolytic stability result in series [1] was “unchanged”.
`O=C([N-][N+]1(CC(O)c2ccccc2)CCCCC1)c1ccccc1` (centres unmarked) [R1=Ph, R2=Ph] had a negative logarithm of the Ki (pKi) at chymotrypsin of 3.30.
For the molecule `CC(O)C[N+]1([N-]C(=O)c2ccccc2)CCCCC1` (centres unmarked) [R1=Me, R2=Ph], the negative-log Ki (pKi) on chymotrypsin was 3.89.

Source of the values: US7034110B2, “Method of identifying chemical compounds having selected properties for a particular application” (ArQule, Inc., priority 1994, dated 2006).
